Test results taken from PMC5291163 (Journal of the American Chemical Society, 2016).
Like-named read-outs stand apart in the source and are kept apart here. Square brackets hold non-standard residues; d marks the D form. Peptide text beside a SMILES is read from it. * marks the point of attachment. Pentanoyl(5-PPh3+) = O=C(CCCC[P+](c1ccccc1)(c1ccccc1)c1ccccc1)*; d(pY) = N[C@H](Cc1ccc(OP(=O)(O)O)cc1)C(=O)O; pY = N[C@@H](Cc1ccc(OP(=O)(O)O)cc1)C(=O)O; NBD = O=[N+]([O-])c1ccc(*)c2nonc12; Cbz = O=C(OCc1ccccc1)*; βAla = NCCC(=O)O; CH2F = FC*

How the values were obtained:
[1] = TEM of nanostructures before and after addition of ALP; assay type: physicochemical; details: 100 µM, before ALP
[2] = system: alkaline phosphatase (ALP); details: substrate 0.1 wt%, ALP 0.1 U/mL
[3] = ALP 1 U/mL, 24 h, PBS buffer pH 7.4
HS5 cells = details: 100 µM
active caspase3 = details: Saos2 cells, 50 µM, first 3 h of treatment

| Structure (SMILES) | toxicity on Saos2 cells of the inhibitor itself (Saos2 cells; 45 µM) | diameter of uniform nanoparticles (TEM) [1] | percentage of enzymatic dephosphorylation after 24 h [2] | t1/2 of ALP catalyzed dephosphorylation [2] | increase of the SLS signal after addition of ALP ([3]; 25 µM precursor) | increase of the SLS signal after addition of ALP ([3]; 50 µM precursor) | increase of the SLS signal after addition of ALP ([3]; 100 µM precursor) | increase of the SLS signal after addition of ALP ([3]; 200 µM precursor) | cytotoxicity against HS5 cells (HS5 cells) | expression level of active caspase3 relative to untreated cells (active caspase3) | cell viability of unstimulated Saos2 (Saos2 cells; 50 µM, 48h) |
| --- | --- | --- | --- | --- | --- | --- | --- | --- | --- | --- | --- |
| COC(=O)C[C@H](NC(=O)[C@H](C)NC(=O)[C@@H](NC(=O)OCc1ccccc1)C(C)C)C(=O)CF [zVAD-fmk, reference compound] (Cbz-Val-Ala-Asp(OMe)-CH2F) | no toxicity | – | – | – | – | – | – | – | – | – | – |
| O=C(CCCC[P+](c1ccccc1)(c1ccccc1)c1ccccc1)NCCCC[C@@H](NC(=O)[C@@H](Cc1ccc(OP(=O)(O)O)cc1)NC(=O)[C@@H](Cc1ccccc1)NC(=O)[C@@H](Cc1ccccc1)NC(=O)CCNc1ccc([N+](=O)[O-])c2nonc12)C(=O)O [D-1P] ({NBD-βAla}-[dF][dF][d(pY)][dK](Pentanoyl(5-PPh3+))-OH) | – | 25 ±2 nm | about 90% | 33 min | 43 fold | 10 fold | 8 fold | 4 fold | almost innocuous | about 1.7 fold | – |
| O=C(CCCC[P+](c1ccccc1)(c1ccccc1)c1ccccc1)NCCCC[C@H](NC(=O)[C@H](Cc1ccc(OP(=O)(O)O)cc1)NC(=O)[C@H](Cc1ccccc1)NC(=O)[C@H](Cc1ccccc1)NC(=O)CCNc1ccc([N+](=O)[O-])c2nonc12)C(=O)O [L-1P] ({NBD-βAla}-FF[pY]K(Pentanoyl(5-PPh3+))-OH) | – | – | ~80% | 68.4 min | 120 fold | 48 fold | 18 fold | 14 fold | almost innocuous | changes little | 71.7% |
